Assays:
Type in all cases: cell-based
[1] = tested on: Salmonella enteritidis KCTC 12400; assay: MIC by broth dilution method; settings: S. enteritidis, 37° C., 24 hours
[2] = tested on: Staphylococcus aureus KCTC 1916; assay: MIC by broth dilution method; settings: S. aureus, 37° C., 24 hours
[3] = tested on: Escherichia coli KCTC 1039; assay: MIC by broth dilution method; settings: E. coli, 37° C., 24 hours
[4] = tested on: Vibrio parahaemolyticus KCTC 27; assay: MIC by broth dilution method; settings: V. parahaemolyticus, 37° C., 24 hours
[5] = tested on: Salmonella typhimurium KCTC 2514; assay: MIC by broth dilution method; settings: S. typhimurium, 37° C., 24 hours
[6] = tested on: 18 species of pathogenic bacteria (aerobic); assay: Agar diffusion antibacterial test, overall (aerobic); settings: all kinds of bacteria (aerobic); treatment concentration of 1.0%
[7] = tested on: 8 anaerobic bacterial species; assay: Agar diffusion antibacterial test, overall (anaerobic); settings: anaerobic bacteria; concentration of 1.0%

Row | SMILES | MIC [1] [%] | MIC [2] [%] | MIC [3] [%] | MIC [4] [%] | MIC [5] [%] | Antibacterial effects [6] | Antibacterial activity [7]
1 | O=C1C(N(CO)C(=O)NCO)N(CO)C(=O)N1CO (stereo not drawn) [Germall II] | 0.01 | 0.03 | 0.005 | 0.02 | 0.02 |  | 
2 | C/C=C/C=C/C(=O)O [Sorbic acid, reference compound] | 0.01 | 0.04 | 0.01 | 0.03 | 0.03 |  | 
3 | C=C1C(=O)OC[C@@H]1O [R-(+)-tulipalin B, (4R)-4-hydroxy-3-methylene-oxolan-2-one, reference compound] |  |  |  |  |  | no antibacterial effects | no antibacterial activity

From US20080262082A1, “COMPOSITION CONTAINING S-(-)-TULIPALIN B OR ACETYLATED-S-(-)-TULIPALIN B” (BIO SPECTRUM, INC., priority 2007, published 2008)
